Data set [1] concerns Xanthomonas campestris pv. campestris. Briefly: Xanthomonas campestris pv. campestris in vitro cell test. The class given is cell-based. To be noted: 20 ppm of active ingredient, 24 h incubation, read-out: efficacy (inhibition of bacteria growth). How it is done: • Solvent: DMSO • Culture medium: LB broth medium (Luria Broth Miller) Sigma • Inoculum: bacteria suspension
Compounds were solubilized in DMSO and the solution used to prepare the required range of concentrations. The final concentration of DMSO used in the assay was ≤1%.
(§1) Inoculum was prepared from a pre-culture of bacteria grown in liquid medium and diluted to the desired optical density (OD).
(§2) Compounds were evaluated for their ability to inhibit bacteria growth in liquid culture assay. The compounds were added in the desired concentrations to culture medium containing the bacteria suspension. After 24 h of incubation, the efficacy of compounds was determined by spectrometric measurement of bacteria growth. Inhibition was determined by comparing the absorbance values in wells containing the compounds with the absorbance in control wells without active ingredients.

For data set [2] the test system is unchanged. Briefly: In vivo preventive test on Xanthomonas campestris pv. campestris (black rot on cabbage). The settings on record: evaluated 8 or 10 days after inoculation, read-out: efficacy; for pest or weed control at 31 ppm: 31 ppm of active ingredient; for pest or weed control at 125 ppm: 125 ppm of active ingredient. How it is done: The tested active ingredients were prepared by homogenization in a mixture of acetone/Dimethyl sulfoxide/Tween®, and then diluted with water to obtain the desired active material concentration.
The young plants of cabbage were treated by spraying the active ingredient prepared as described above. Control plants were treated only with an aqueous solution of acetone/Dimethyl sulfoxide/Tween®.
After 72 hours, the plants were contaminated by spraying the leaves with an aqueous bacteria suspension of Xanthomonas campestris pv. campestris. The contaminated cabbage plants were incubated for 8 or 10 days at 27° C. at 95% relative humidity.
The test was evaluated 8 or 10 days after the inoculation. 0% means an efficacy which corresponds to that of the control plants while an efficacy of 100% means that no disease was observed. […]
Compounds CMP1, CMP2, CMP3 and CMP4 were tested in an in vivo preventive test on Xanthomonas campestris pv. campestris (black rot on cabbage) in the same conditions as described in Example H.

In data set [3] the test system is salicylate responsive promoter sequence of the PR1 (pathogenesis-related protein I) gene (AT2G14610). Nature of the data set: Induction of defense gene expression in Arabidopsis thaliana (PR1 promoter-GFP reporter plants). The class given is in vivo. The settings on record: Arabidopsis thaliana, 72 h, 3rd day after spraying, mock treated leaves set as 1.00, read-out: relative fluorescence value; for fold induction at 75 ppm: 75 ppm of compound. How it is done:
Arabidopsis thaliana reporter plants containing the coding sequence of a green fluorescent protein (GFP) linked to the salicylate responsive promoter sequence of the PR1 (pathogenesis-related protein I) gene (AT2G14610) were grown for five days and then sprayed with compounds. On the 3rd day after spraying, plant fluorescence was assessed with a MacroFluo instrument from Leica Microsystems (Wetzlar, Germany). Fluorescences were quantified with the Meta-Morph Microscopy Automation & Image Analysis Software (Molecular Devices, Sunnyvale, Calif., United States). Background fluorescence in mock treated leaves was set as 1.00.

The subject of data set [4] is Peronospora parasitica. Briefly: In vivo preventive test on Peronospora parasitica (Crucifer downy mildew). The settings on record: Hyaloperonospora parasitica, in Brassica oleracea, 120 h, cabbage, evaluated 5 days after inoculation, read-out: efficacy; for pest or weed control at 31 ppm: 31 ppm of active ingredient; for pest or weed control at 125 ppm: 125 ppm of active ingredient; for pest or weed control at 500 ppm: 500 ppm of active ingredient. How it is done:
The tested active ingredients were prepared by homogenization in a mixture of acetone/Dimethyl sulfoxide/Tween®, and then diluted with water to obtain the desired active material concentration. The young plants of cabbage were treated by spraying the active ingredient prepared as described above. Control plants were treated only with an aqueous solution of acetone/Dimethyl sulfoxide/Tween®.
After 72 hours, the plants were contaminated by spraying the leaves with an aqueous suspension of Peronospora parasitica spores. The contaminated cabbage plants were incubated for 5 days at 20° C. and at 100% relative humidity.
The test was evaluated 5 days after the inoculation. 0% means an efficacy which corresponds to that of the control plants while an efficacy of 100% means that no disease was observed.
Compounds CMP2 and CMP3 were tested in an in vivo preventive test on Peronospora parasitica (Crucifer downy mildew) in the same conditions as described in Example G.

The subject of data set [5] is Alternaria alternata. Nature of the data set: Alternaria alternata in vitro cell test. The class given is cell-based. To be noted: 120 h, 20 ppm of active ingredient, 5 days incubation, read-out: efficacy (inhibition of fungal growth). How it is done: • Solvent: DMSO • Culture medium: 14.6 g anhydrous D-glucose (VWR), 7.1 g Mycological Peptone (Oxoid), 1.4 g granulated Yeast Extract (Merck), QSP 1 liter • Inoculum: spores suspension
Fungicides were solubilized in DMSO and the solution used to prepare the required range of concentrations. The final concentration of DMSO used in the assay was ≤[…]1%.
A spore suspension of A. alternata was prepared and diluted to the desired spore density.
Fungicides were evaluated for their ability to inhibit spore germination and mycelium growth in liquid culture assay. The compounds were added in the desired concentration to the culture medium with spores. After 5 days incubation, fungi-toxicity of compounds was determined by spectrometric measurement of mycelium growth. Inhibition of fungal growth was determined by comparing the absorbance values in wells containing the fungicides with the absorbance in control wells without fungicides.

The subject of data set [6] is Pseudomonas syringae pv. tomato. Nature of the data set: Pseudomonas syringae pv. tomato in vitro cell test. To be noted: 20 ppm of active ingredient, 24 h incubation, read-out: efficacy (inhibition of bacteria growth). The class given is cell-based. How it is done:
Culture medium: LB broth medium (Luria Broth Miller) Sigma
Inoculum: bacteria suspension
Compounds were solubilized in DMSO and the solution used to prepare the required range of concentrations. The final concentration of DMSO used in the assay was 1%.
as §1, §2

Data set [7] in a line: LogP by HPLC on reversed phase columns (EEC directive 79/831 Annex V.A8). The class given is physicochemical. The settings on record: reversed phase HPLC columns. In short, it runs like this:
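LogP derived from retention time by linear interpolation against a C3–C16 alkan-2-one calibration series of known LogP. Measured by HPLC on reversed-phase columns following EEC 79/831 Annex V.A8. UV spectra over 200–400 nm at signal peaks gave lambda-max.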

The subject of data set [8] is Colletotrichum lindemuthianum. Nature of the data set: In vivo preventive test on Colletotrichum lindemuthianum (Antrachnose on bean). To be noted: 144 h, inoculation 72 h after spraying, evaluated 6 days after inoculation, read-out: efficacy; for pest or weed control at 31 ppm: 31 ppm of active ingredient; for pest or weed control at 500 ppm: 500 ppm of active ingredient. How it is done:
(§3) The tested active ingredients were prepared by homogenization in a mixture of acetone/Dimethyl sulfoxide/Tween®, and then diluted with water to obtain the desired active material concentration. The young plants of bean were treated by spraying the active ingredient prepared as described above. Control plants were treated only with an aqueous solution of acetone/Dimethyl sulfoxide/Tween®.
After 72 hours, the plants were contaminated by spraying the leaves with an aqueous suspension of Colletotrichum lindemuthianum spores. The contaminated bean plants were incubated for 24 hours at 20° C. and at 100% relative humidity and then for 5 days at 20° C. and at 90% relative humidity. The test was evaluated 6 days after the inoculation. 0% means an efficacy which corresponds to that of the control plants while an efficacy of 100% means that no disease was observed.
Compound CMP1 was tested in an in vivo preventive test on Colletotrichum lindemuthianum (Antrachnose on bean) in the same conditions as described in Example F.

Data set [9] has as its system Pseudomonas syringae pv. tomato. Nature of the data set: In vivo preventive test on Pseudomonas syringae pv. tomato (bacterial speck on tomato). To be noted: evaluated 5 or 6 days after inoculation, read-out: efficacy; for pest or weed control at 500 ppm: 500 ppm of active ingredient. How it is done: The tested active ingredients were prepared by homogenization in a mixture of acetone/Dimethyl sulfoxide/Tween®, and then diluted with water to obtain the desired active material concentration. The young plants of tomato were treated by spraying the active ingredient prepared as described above. Control plants were treated only with an aqueous solution of acetone/Dimethyl sulfoxide/Tween®.
After 72 hours, the plants were contaminated by spraying the leaves with an aqueous bacteria suspension of Pseudomonas syringae pv. tomato. The contaminated tomato plants were incubated for 4 days in saturated atmosphere at 22° C. day/20° C. night—70% HR and then for 1 or 2 days at 22° C. day/20° C. night at 70-80% relative humidity.
The test was evaluated 5 or 6 days after the inoculation. 0% means an efficacy which corresponds to that of the control plants while an efficacy of 100% means that no disease was observed.
Compounds CMP1 and CMP4 were tested in an in vivo preventive test on Pseudomonas syringae pv. tomato (bacterial speck on tomato) in the same conditions as described in Example J.

Data set [10] relates to Uromyces appendiculatus. Briefly: In vivo preventive test on Uromyces appendiculatus (bean rust). To be noted: 240 h, evaluated 10 days after inoculation, read-out: efficacy; for pest or weed control at 125 ppm: 125 ppm of active ingredient; for pest or weed control at 500 ppm: 500 ppm of active ingredient. How it is done:
as §3
After 72 hours, the plants were contaminated by spraying the leaves with an aqueous suspension of Uromyces appendiculatus spores. The contaminated bean plants were incubated for 24 hours at 20° C. and at 100% relative humidity and then for 9 days at 20° C. and at 70-80% relative humidity. The test was evaluated 10 days after the inoculation. 0% means an efficacy which corresponds to that of the control plants while an efficacy of 100% means that no disease was observed.
Compounds CMP5 and CMP6 were tested in an in vivo preventive test on Uromyces appendiculatus (bean rust) in the same conditions as described in Example I.

[11] abbreviates: method [a]: LC-UV, acidic range, 0.1% formic acid in water and acetonitrile as eluent (linear gradient 10% to 95% acetonitrile).
Where [12] appears, read: method [a]: LC-UV, in an acidic range, with 0.1% formic acid in water and acetonitrile as eluent (linear gradient from 10% to 95% acetonitrile).

Turning to `COC(=O)[C@H](CC(=O)OC(C)(C)C)NC(=O)c1sc(Cl)c(Cl)c1Cl` [I.136], the inhibition at 20 ppm in data set [1], in data set [5] and in [6] was at most 30% in each case. Also, the pest or weed control at 31 ppm lay in the range of 80 to 89% in data set [2] and 90 to 100% in data set [4]. Besides, the pest or weed control at 125 ppm in [2] lay in the range of 70 to 79%; in data set [4], 90 to 100%. For the same compound, the fold induction at 75 ppm in data set [3] was over 2. The fold induction at 300 ppm in data set [3] is over 2. Also, the chromatographic logP in [7] (setting [11]) was determined as 4.54.

As for `N#CCNC(=O)c1sc(Cl)c(Cl)c1Cl` [I.025, 3,4,5-trichloro-N-(cyanomethyl)thiophene-2-carboxamide], the inhibition at 20 ppm in data set [1] and in data set [6] was at most 30% each time. In addition, the pest or weed control at 31 ppm in [8] was 90 to 100%; in data set [2], 70 to 79%; in data set [4], 80 to 89%. Also, the pest or weed control at 500 ppm fell in the range of 90 to 100% in data set [8], 80 to 89% in data set [9] and 90 to 100% in [4]. Moreover, the fold induction at 75 ppm in data set [3] was over 2. Further, the fold induction at 300 ppm in [3] was over 2. The pest or weed control at 125 ppm in data set [4] lay in the range of 80 to 89%. Besides, the chromatographic logP turned out to be 2.59 in [7] (given in the preparation examples, method not marked) and 2.64 in [7] (setting [12]).

Regarding `CCOC(=O)C[C@H](NC(=O)c1sc(Cl)c(Cl)c1Cl)C(=O)OCC` [I.138], the inhibition at 20 ppm in data set [1], in data set [5] and in data set [6] was at most 30% in each case. Further, the pest or weed control at 31 ppm in data set [9] (31 ppm of active ingredient) was in the range of 90 to 100%; in data set [2] it was 70 to 79%; in data set [4] it was 90 to 100%. In addition, in [3], the fold induction at 75 ppm was over 2. Moreover, in data set [3], the fold induction at 300 ppm was over 2. The pest or weed control at 125 ppm in [10] and in data set [4] was 90 to 100% in each case. Besides, the chromatographic logP in data set [7] (setting [11]) is 4.12.

For the compound `CCOC(=O)C(CO)NC(=O)c1sc(Cl)c(Cl)c1Cl` (stereo not shown) [I.078], the inhibition at 20 ppm in data set [1], in [5] and in data set [6] was at most 30% in each case. Moreover, the pest or weed control at 500 ppm in data set [8], in data set [10] and in data set [4] was 90 to 100% in each case. The fold induction at 75 ppm in data set [3] was over 2. The fold induction at 300 ppm in data set [3] is over 2. The pest or weed control at 125 ppm in data set [10] and in data set [4] was 90 to 100% each time. Moreover, the pest or weed control at 31 ppm in [4] is 90 to 100%. The same compound returned a chromatographic logP in data set [7] (setting [12]) of 2.75.

In the case of `CCOC(=O)C(COC)NC(=O)c1sc(Cl)c(Cl)c1Cl` (stereo not shown) [I.059], the inhibition at 20 ppm in [1] and in data set [6] was at most 30% in each case. The pest or weed control at 31 ppm was in the range of 70 to 79% in [8], 90 to 100% in [2] and 80 to 89% in data set [4]. In addition, the pest or weed control at 500 ppm in [8], in data set [9], in data set [10] and in data set [4] was 90 to 100% throughout. Besides, the pest or weed control at 125 ppm in data set [2] was 70%; in data set [10] it was 90 to 100%; in data set [4], 70 to 79%. For the same compound, the fold induction at 75 ppm in data set [3] was over 2. Moreover, the fold induction at 300 ppm in data set [3] was over 2. The same compound yielded a chromatographic logP in [7] (setting [12]) of 3.83.

By inhibition is commonly meant the change of the read-out against control, counted positive when it falls. By chromatographic logP is commonly meant a lipophilicity value derived from retention on a column. Lower therefore signals lower lipophilicity.
